For data set [1] the following is noted: 293.15 K; 101.33 kPa; Liquid; Buoyancy - hydrostatic balance.
Data set [2] can be described thus: refractive index (Na D-line) (dimensionless). To be noted: 293.15 K; 101.33 kPa; Liquid; Standard Abbe refractometry.

Numbers after ± are expanded uncertainties.

As for `C=CCO` [2-propenol], the mass density in data set [1] worked out at 854 ± 1 kg/m3. The refractive index in data set [2] turned out to be 1.4119 ± 0.0005.
The like results for `CCO` [ethanol] were, in that order, 790 ± 1 kg/m3 and 1.3616 ± 0.0005.
Taken in the same sequence, the figures for `CO` [methanol] were 792.2 ± 1 kg/m3 and 1.3276 ± 0.0005.
Taken in the same sequence, the figures for `O` [water] were 998.4 ± 1 kg/m3 and 1.3328 ± 0.0005.

The values are drawn from the NIST ThermoML archive (doi:10.1021/acs.jced.5b01048).
